pIC50: −log10 of the molar value.

In assay [1] the target is H1047R PIK3CA enzyme (Homo sapiens, UniProt P42336, H1047R). The assay is described as follows: ADP-Glo Biochemical PIK3CA Kinase Assay. (In general: In ADP-Glo the light output rises with the ADP produced.)
Assay [2] is described as follows: cells. The settings on record: Homo sapiens, MCF-10A, read-out: MCF10A IC50.

H1047R PIK3CA enzyme, sequence (P42336 whole entry H1047R): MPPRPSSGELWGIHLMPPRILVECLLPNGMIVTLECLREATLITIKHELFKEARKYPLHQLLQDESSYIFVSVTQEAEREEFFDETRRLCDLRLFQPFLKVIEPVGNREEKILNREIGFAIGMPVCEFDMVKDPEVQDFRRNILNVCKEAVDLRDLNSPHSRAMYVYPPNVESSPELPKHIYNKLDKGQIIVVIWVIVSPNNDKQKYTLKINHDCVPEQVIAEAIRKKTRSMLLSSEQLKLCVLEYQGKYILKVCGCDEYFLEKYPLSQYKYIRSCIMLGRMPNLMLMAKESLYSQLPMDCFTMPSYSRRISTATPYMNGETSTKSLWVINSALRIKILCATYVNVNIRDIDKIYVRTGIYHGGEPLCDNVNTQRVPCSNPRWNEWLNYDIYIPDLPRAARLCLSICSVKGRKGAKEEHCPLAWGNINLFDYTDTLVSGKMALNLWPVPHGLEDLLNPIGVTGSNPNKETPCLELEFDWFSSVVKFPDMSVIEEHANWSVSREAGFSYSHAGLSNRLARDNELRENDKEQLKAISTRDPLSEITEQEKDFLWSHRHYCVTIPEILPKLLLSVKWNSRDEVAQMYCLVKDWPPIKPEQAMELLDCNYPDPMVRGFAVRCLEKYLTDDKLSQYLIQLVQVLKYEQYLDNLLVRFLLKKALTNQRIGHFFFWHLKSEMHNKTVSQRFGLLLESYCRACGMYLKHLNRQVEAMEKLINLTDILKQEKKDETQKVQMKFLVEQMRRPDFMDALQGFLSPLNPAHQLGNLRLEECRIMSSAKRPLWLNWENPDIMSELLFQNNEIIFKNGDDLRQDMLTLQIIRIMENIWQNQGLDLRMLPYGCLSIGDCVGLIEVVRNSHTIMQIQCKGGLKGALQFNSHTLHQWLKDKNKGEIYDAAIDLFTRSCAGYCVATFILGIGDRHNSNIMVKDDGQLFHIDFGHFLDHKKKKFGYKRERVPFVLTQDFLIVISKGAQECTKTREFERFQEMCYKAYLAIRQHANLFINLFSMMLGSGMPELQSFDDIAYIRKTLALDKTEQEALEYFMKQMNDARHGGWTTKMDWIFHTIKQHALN
H1047R PIK3CA enzyme, sequence (P27986 whole entry partner): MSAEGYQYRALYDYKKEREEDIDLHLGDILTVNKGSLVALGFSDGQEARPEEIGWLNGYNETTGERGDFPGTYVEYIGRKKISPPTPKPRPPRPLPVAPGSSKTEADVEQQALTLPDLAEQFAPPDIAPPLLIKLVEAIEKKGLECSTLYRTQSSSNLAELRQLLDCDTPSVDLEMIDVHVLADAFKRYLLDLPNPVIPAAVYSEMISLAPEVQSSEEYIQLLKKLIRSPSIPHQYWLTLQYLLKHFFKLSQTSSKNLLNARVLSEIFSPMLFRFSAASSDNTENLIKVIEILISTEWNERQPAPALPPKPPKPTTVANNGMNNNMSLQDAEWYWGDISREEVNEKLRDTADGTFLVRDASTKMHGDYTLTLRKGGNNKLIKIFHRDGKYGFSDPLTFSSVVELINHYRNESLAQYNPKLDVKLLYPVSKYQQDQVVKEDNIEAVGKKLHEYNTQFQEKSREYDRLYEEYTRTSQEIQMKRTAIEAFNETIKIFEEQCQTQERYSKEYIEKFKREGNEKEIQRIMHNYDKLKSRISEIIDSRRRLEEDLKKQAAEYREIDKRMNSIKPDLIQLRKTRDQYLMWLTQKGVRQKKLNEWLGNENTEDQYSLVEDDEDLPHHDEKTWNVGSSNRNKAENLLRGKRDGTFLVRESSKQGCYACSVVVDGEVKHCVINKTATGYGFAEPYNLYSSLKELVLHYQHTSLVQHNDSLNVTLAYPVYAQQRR

Turning to `O=C1N[C@@H](c2cc(F)ccc2Cl)c2c(NC(=O)N3C[C@](O)(C(F)(F)F)c4cc(F)ccc43)cc(C3COC3)cc21` (single isomer, unassigned) [Compound I-2655], the results for the negative-log IC50 (pIC50) in assay [1] and in assay [2] were no less than 7.00 and greater than 6.00, respectively.

In the case of `CN(C)c1nc2cc(-c3cc(NC(=O)c4cc(F)cc(C(F)(F)F)c4)c4c(c3)C(=O)NC4c3cc(F)ccc3Cl)ccn2n1` (centres unmarked) [Compound I-2200], the values for the pIC50 in assay [1] and in assay [2] were no less than 7.00 and greater than 6.00, respectively.

With `O=C1N[C@H](c2cc(F)ccc2Cl)c2c(NC(=O)N3C[C@H](O)c4cc(F)ccc43)cc(-n3ccnn3)cc21` (single isomer, unassigned) [Compound I-2369], the pIC50 in assay [1] was no less than 7.00; in assay [2], 5.30 to 6.00.

As to `O=C1NC(c2cc(F)ccc2Cl)c2c(NC(=O)N3CC(O)(C(F)(F)F)c4cc(F)ccc43)cccc21` (centres unmarked) [Compound I-2474], the pIC50 in assay [1] is no less than 7.00; in assay [2] it was 5.30 to 6.00.

For the compound `O=C(Nc1cc(-c2cncnc2)cc2c1[C@H](c1cc(F)ccc1Cl)NC2=O)c1cc(F)cc(C(F)(F)F)c1` [Compound I-1095], the pIC50 in assay [1] is no less than 7.00; in assay [2], greater than 6.00.

`O=C1NC(c2cc(F)ccc2Cl)c2c(NC(=O)N3CC(O)(C(F)F)c4cc(F)ccc43)cccc21` (mixture of isomers) [Compound I-2488]: the negative-log IC50 (pIC50) in assay [1] was no less than 7.00; in assay [2], 5.30 to 6.00.

On to `Cn1ccc(-c2cc(NC(=O)c3cc(F)cc(C(F)(F)F)c3)c3c(c2)C(=O)NC3c2cc(F)ccc2Cl)n1` (centres unmarked) [Compound I-947], for which the values for the pIC50 in assay [1] and in assay [2] were no less than 7.00 and greater than 6.00, respectively.

With `CC(C)(O)Cn1cc(-c2cc(NC(=O)c3cc(F)cc(C(F)(F)F)c3)c3c(c2)C(=O)NC3c2cc(F)ccc2Cl)cn1` (centres unmarked) [Compound I-968], the pIC50 in assay [1] was no less than 7.00; in assay [2], greater than 6.00.

For the compound `C[C@]1(C(=O)Nc2cc(Br)cc3c2[C@@H](c2cc(F)ccc2Cl)NC3=O)CCC[C@@H](C(F)(F)F)C1` (single isomer, unassigned) [Compound I-2261], the pIC50 in assay [1] is no less than 7.00; in assay [2], greater than 6.00.

On to `C[C@]1(O)CN(C(=O)Nc2cccc3c2[C@H](c2cc(F)ccc2Cl)NC3=O)c2ccccc21` (single isomer, unassigned) [Compound I-2205], for which the pIC50 in assay [1] was no less than 7.00; in assay [2] it was greater than 6.00.

As for `O=C(Nc1cc(NC2=NC3(CO2)CC(F)(F)C3)cc2c1C(c1cc(F)ccc1Cl)NC2=O)c1cc(F)cc(C(F)(F)F)c1` (centres unmarked) [Compound I-2409], the pIC50 in assay [1] is no less than 7.00; in assay [2] it was 5.00 to 5.30.

For `O=C1NC(c2cc(F)ccc2Cl)c2c(NC(=O)C34CC5CC(C3)CC(C(F)(F)F)(C5)C4)cccc21` (centres unmarked) [Compound I-1073], the pIC50 in assay [1] is no less than 7.00; in assay [2] it was greater than 6.00.

As to `Cc1cn(-c2cc(NC(=O)N3C[C@](O)(C(F)(F)F)c4cc(F)ccc43)c3c(c2)C(=O)N[C@@H]3c2cc(F)ccc2Cl)cn1` (single isomer, unassigned) [Compound I-2637], the pIC50 in assay [1] is no less than 7.00; in assay [2], greater than 6.00.

Regarding `O=C1NC(c2cc(F)ccc2Cl)c2c(NC(=O)N3CC(O)c4cc(F)ccc43)cc(-n3cncn3)cc21` (mixture of isomers) [Compound I-2414], the pIC50 is 6.30 to 7.00 in assay [1] and 4.44 to 5.00 in assay [2].

In the case of `CC(C#N)c1cc(NC(=O)c2cc(F)cc(C(F)(F)F)c2)c2c(c1)C(=O)N[C@H]2c1cc(F)ccc1Cl` (some centres unmarked) [Compound I-2290], the pIC50 was no less than 7.00 in assay [1] and greater than 6.00 in assay [2].

As to `Cn1cnc(Nc2cc(NC(=O)c3cc(F)cc(C(F)(F)F)c3)c3c(c2)C(=O)NC3c2cc(F)ccc2Cl)n1` (centres unmarked) [Compound I-976], the pIC50 was no less than 7.00 in assay [1] and greater than 6.00 in assay [2].

Turning to `COCc1cc(NC(=O)c2nsc3ccccc23)c2c(c1)C(=O)NC2c1ccccc1C` (centres unmarked) [Compound I-146, N-(6-(Methoxymethyl)-1-oxo-3-(o-tolyl)isoindolin-4-yl)benzo[d]isothiazole-3-carboxamide], the pIC50 is no less than 7.00 in assay [1] and 5.00 to 5.30 in assay [2].

Consider `O=C(Nc1cc(-c2ccc3ncnn3c2)cc2c1[C@H](c1cc(F)ccc1Cl)NC2=O)c1cc(F)cc(OC(F)(F)F)c1` (stereo in doubt) [Compound I-1111], for which the pIC50 was no less than 7.00 in assay [1] and greater than 6.00 in assay [2].

As to `O=C(Nc1cc(-c2cnc3ccnn3c2)cc2c1C(c1cc(F)ccc1Cl)NC2=O)c1cc(F)cc(C(F)(F)F)c1` (centres unmarked) [Compound I-1047], the pIC50 was no less than 7.00 in assay [1] and greater than 6.00 in assay [2].

With `O=C(Nc1cc(-n2cncn2)cc2c1C(c1cc(F)ccc1Cl)NC2=O)c1cc(F)cc(C(F)(F)F)c1` (centres unmarked) [Compound I-1086], the figures for the pIC50 in assay [1] and in assay [2] were no less than 7.00 and greater than 6.00, respectively.

For `O=C(Nc1cc(-c2ccc3[nH]ncc3c2)cc2c1C(c1cc(F)ccc1Cl)NC2=O)c1cc(F)cc(C(F)(F)F)c1` (centres unmarked) [Compound I-1033], the pIC50 in assay [1] is no less than 7.00; in assay [2] it was greater than 6.00.

For `O=C1N[C@@H](c2cc(F)ccc2Cl)c2c(NC(=O)[C@H]3CCC[C@@H](C(F)(F)F)C3)cc(-c3ccc4ncnn4c3)cc21` [Compound I-2029], the pIC50 in assay [1] is no less than 7.00; in assay [2] it was greater than 6.00.

For the compound `N#CCc1cc(NC(=O)N2CC(O)(C(F)(F)F)c3cc(F)ccc32)c2c(c1)C(=O)NC2c1cc(F)ccc1Cl` (mixture of isomers) [Compound I-2596], the pIC50 in assay [1] was no less than 7.00; in assay [2], greater than 6.00.

For `O=C1N[C@@H](c2cc(F)ccc2Cl)c2c(NC(=O)N3C[C@@H](O)c4cc(F)c(F)cc43)cccc21` (single isomer, unassigned) [Compound I-2293], the pIC50 in assay [1] was no less than 7.00; in assay [2], greater than 6.00.

For `Cc1cnccc1-c1cc(NC(=O)c2cc(F)cc(C(F)(F)F)c2)c2c(c1)C(=O)N[C@H]2c1cc(F)ccc1Cl` (stereo in doubt) [Compound I-1010], the pIC50 in assay [1] is no less than 7.00; in assay [2] it was greater than 6.00.

As for `O=C1NC(c2cc(F)ccc2Cl)c2c(NC(=O)N3CC(O)(C(F)(F)F)c4cc(F)ccc43)cc(Cl)cc21` (mixture of isomers) [Compound I-2482], the pIC50 in assay [1] is no less than 7.00; in assay [2], greater than 6.00.

`O=C1N[C@@H](c2cc(F)ccc2Cl)c2c(NC(=O)N3C[C@@H](O)c4ccc(F)cc43)cccc21` (stereo in doubt) [Compound I-2171]: the figures for the negative-log IC50 (pIC50) in assay [1] and in assay [2] were no less than 7.00 and greater than 6.00, respectively.

In the case of `Cc1nc2ccc(-c3cc(NC(=O)c4cc(F)cc(C(F)(F)F)c4)c4c(c3)C(=O)NC4c3cc(F)ccc3Cl)cc2o1` (centres unmarked) [Compound I-984], the values for the pIC50 in assay [1] and in assay [2] were no less than 7.00 and greater than 6.00, respectively.

Consider `O=C1Cc2ccc(-c3cc(NC(=O)c4cc(F)cc(C(F)(F)F)c4)c4c(c3)C(=O)NC4c3cc(F)ccc3Cl)cc2N1` (centres unmarked) [Compound I-982], for which the pIC50 in assay [1] is no less than 7.00; in assay [2], greater than 6.00.

On to `Cc1nc(Nc2cc(NC(=O)c3cc(F)cc(C(F)(F)F)c3)c3c(c2)C(=O)NC3c2cc(F)ccc2Cl)oc1C` (centres unmarked) [Compound I-966], for which the pIC50 was no less than 7.00 in assay [1] and greater than 6.00 in assay [2].

Turning to `CC1(Cc2cc(NC(=O)N3C[C@](O)(C(F)(F)F)c4cc(F)ccc43)c3c(c2)C(=O)N[C@@H]3c2cc(F)ccc2Cl)COC1` (single isomer, unassigned) [Compound I-2657], the pIC50 in assay [1] is no less than 7.00; in assay [2], greater than 6.00.

Broadly, the pIC50 is the negative decadic logarithm of the IC50, by convention in mol/L.
